From patent US20230339851A1, “CXCR6 SULFONAMIDE COMPOUNDS” (CHEMOCENTRYX, INC., priority 2022, published 2023) come the findings set out here.

SMILES strings stand for the structures.

The target of the assay is T1, human CXCR6 (Homo sapiens, UniProt O00574).
T1 construct: expressed in transfected cells
T1 sequence (O00574 whole entry): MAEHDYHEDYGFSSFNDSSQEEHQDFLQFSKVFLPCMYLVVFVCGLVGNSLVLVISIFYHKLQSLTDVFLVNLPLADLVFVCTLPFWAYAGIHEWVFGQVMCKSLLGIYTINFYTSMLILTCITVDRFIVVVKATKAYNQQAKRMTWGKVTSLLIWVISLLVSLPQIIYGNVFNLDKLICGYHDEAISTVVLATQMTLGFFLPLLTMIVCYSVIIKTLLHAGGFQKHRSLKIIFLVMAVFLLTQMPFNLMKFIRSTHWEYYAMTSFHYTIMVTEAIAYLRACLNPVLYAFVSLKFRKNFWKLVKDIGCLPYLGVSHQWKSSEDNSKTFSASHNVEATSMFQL
As to the kind of experiment: Radioligand Binding Assay (125I-CXCL16 displacement). The following applies: L1.2 cells stably transfected with human CXCR6 cDNA, 0.1 nM 125I-CXCL16, 4° C., three-hour incubation; read-out: Potency (IC50). The essentials:
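L1.2 cells stably expressing human CXCR6 incubated 3 h at 4 °C in HBSS/0.1% BSA with 0.1 nM 125I-CXCL16 and graded compound concentrations. Bound radioactivity collected by filtration and counted; IC50 from 3-parameter nonlinear regression.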
As to `COc1cc(NC(=O)[C@@H](CO)c2ccccc2)ccc1S(=O)(=O)Nc1cccc(OC(F)(F)F)c1` [Example 1.235], the concentration for half-maximal inhibition (IC50) lay in the range of 200 to 750 nM.

Consider `CCOc1cc(NC(=O)CC(O)c2cccnc2)ccc1S(=O)(=O)Nc1cccc(OC(F)(F)F)c1` (centres unmarked) [Example 1.236], for which the IC50 lay within 750 to 2000 nM.

`CCn1nccc1C(=O)Nc1ccc(S(=O)(=O)Nc2cccc(C(F)(F)F)c2)c(OC)c1` [Example 1.238]: the IC50 was in the range of 200 to 750 nM.

As to `COc1cc(NC(=O)c2ccnn2C)ccc1S(=O)(=O)Nc1cccc(OC(F)(F)F)c1` [Example 1.239], the IC50 is ≤ 200 nM.

With `COc1cc(NC(=O)CC2COCCN2)ccc1S(=O)(=O)Nc1cccc(C(F)(F)F)c1` (centres unmarked) [Example 1.240], the IC50 lay in the range of 2000 to 20000 nM.

On to `CCOc1cc(NC(=O)[C@@H](NC(=O)CC)C(C)C)ccc1S(=O)(=O)Nc1cccc(OC(F)(F)F)c1` [Example 1.241], for which the IC50 is ≤ 200 nM.

Take `COc1cc(NC(=O)c2ccnn2C)ccc1S(=O)(=O)Nc1cccc(C)c1` [Example 1.242]: the IC50 was in the range of 2000 to 20000 nM.

With `CCOc1cc(NC(=O)[C@@H](N)C(C)CC)ccc1S(=O)(=O)Nc1cccc(OC(F)(F)F)c1` (some centres unmarked) [Example 1.243], the IC50 was ≤ 200 nM.

For the compound `CCOc1cc(NC(=O)[C@@H](O)C(C)C)ccc1S(=O)(=O)Nc1ccc(C(F)(F)F)cc1` [Example 1.244], the IC50 fell in the range of 200 to 750 nM.

As for `CCOc1cc(NC(=O)C(C(N)=O)C2CCCC2)ccc1S(=O)(=O)Nc1cccc(OC(F)(F)F)c1` (centres unmarked) [Example 1.245], the IC50 was ≤ 200 nM.

Regarding `CCOc1cc(NC(=O)C(O)C2C=CCCC2)ccc1S(=O)(=O)Nc1cccc(OC(F)(F)F)c1` (centres unmarked) [Example 1.246], the IC50 was ≤ 200 nM.

Turning to `COc1cc(NC(=O)c2ccnn2C)ccc1S(=O)(=O)Nc1ccc(Cl)c(Cl)c1` [Example 1.247], the IC50 was in the range of 750 to 2000 nM.

On to `COc1cc(NC(=O)c2ccnn2C)ccc1S(=O)(=O)Nc1ccc(F)c(C(F)(F)F)c1` [Example 1.248], for which the IC50 was in the range of 750 to 2000 nM.

For `Cc1cc(NC(=O)C2CCOC2)ccc1S(=O)(=O)Nc1cccc(C(F)(F)F)c1` (centres unmarked) [Example 1.249], the IC50 lay in the range of 2000 to 20000 nM.

For the compound `CCOc1cc(NC(=O)[C@H]2CC(C)=C(C)C[C@@H]2CO)ccc1S(=O)(=O)Nc1cccc(OC(F)(F)F)c1` [Example 1.250], the half-inhibitory concentration (IC50) was ≤ 200 nM.

For `Cc1ccc(C(=O)Nc2ccc(S(=O)(=O)Nc3cccc(C(F)(F)F)c3)c(C)c2)cc1` [Example 1.251], the IC50 is 750 to 2000 nM.

In the case of `Cc1cc(NC(=O)c2cnco2)ccc1S(=O)(=O)Nc1cccc(C(F)(F)F)c1` [Example 1.252], the IC50 lay within 750 to 2000 nM.

`CCOc1cc(NC(=O)CC(C)O)ccc1S(=O)(=O)Nc1cccc(OC(F)(F)F)c1` (centres unmarked) [Example 1.253]: the IC50 is 200 to 750 nM.

Regarding `COc1cc(NC(=O)c2cc(C)nn2C)ccc1S(=O)(=O)Nc1cccc(C(F)(F)F)c1` [Example 1.254], the 50% inhibitory concentration (IC50) was 200 to 750 nM.

Take `Cc1cc(NC(=O)c2cnoc2C)ccc1S(=O)(=O)Nc1cccc(C(F)(F)F)c1` [Example 1.255]: the IC50 fell in the range of 200 to 750 nM.

In the case of `Cn1nccc1C(=O)Nc1ccc(S(=O)(=O)Nc2cccc(C(F)(F)F)c2)c(F)c1` [Example 1.256], the IC50 lay in the range of 2000 to 20000 nM.

Consider `CCOc1cc(NC(=O)C2c3ccccc3CC2O)ccc1S(=O)(=O)Nc1cccc(OC(F)(F)F)c1` (centres unmarked) [Example 1.257], for which the IC50 was ≤ 200 nM.

Turning to `CCOc1cc(NC(=O)[C@@H](CO)c2ccccc2)ccc1S(=O)(=O)Nc1ccc(Cl)c(C)c1` [Example 1.258], the 50% inhibitory concentration (IC50) fell in the range of 200 to 750 nM.

With `CCOc1cc(NC(=O)[C@@H](O)[C@@H](C)CC)ccc1S(=O)(=O)Nc1ccc(F)c(OC(F)(F)F)c1` [Example 1.259], the IC50 is ≤ 200 nM.

With `CCOc1cc(NC(=O)c2cccn(C)c2=O)ccc1S(=O)(=O)Nc1cccc(OC(F)(F)F)c1` [Example 1.260], the IC50 was in the range of 2000 to 20000 nM.

`CCOc1cc(NC(=O)[C@@H](O)C(C)C)ccc1S(=O)(=O)Nc1cccc(C(C)(F)F)c1` [Example 1.261]: the IC50 is ≤ 200 nM.

`CCOc1cc(NC(=O)[C@@H](O)c2ccccc2)ccc1S(=O)(=O)Nc1ccc(Cl)c(OC(F)(F)F)c1` [Example 1.262]: the IC50 is ≤ 200 nM.

On to `CCOc1cc(NC(=O)[C@@H](O)C(C)C)ccc1S(=O)(=O)Nc1cccc(C(C)C)c1` [Example 1.263], for which the IC50 was ≤ 200 nM.

As for `CC(=O)Nc1ccc(S(=O)(=O)Nc2cccc(C(F)(F)F)c2)c(OC(F)(F)F)c1` [Example 1.264], the IC50 lay within 2000 to 20000 nM.

As for `Cc1cc(NC(=O)C2(C)CCCCC2)ccc1S(=O)(=O)Nc1cccc(C(F)(F)F)c1` [Example 1.265], the IC50 lay in the range of 2000 to 20000 nM.

Regarding `Cc1cc(NC(=O)[C@@H](O)c2ccccc2)ccc1S(=O)(=O)Nc1cccc(OC(F)(F)F)c1` [Example 1.266], the IC50 lay within 200 to 750 nM.

`CCOc1cc(NC(=O)[C@@H](O)C(C)C)ccc1S(=O)(=O)Nc1cccc(OC(F)(F)F)c1C` [Example 1.267]: the IC50 lay within 2000 to 20000 nM.

Take `Cc1cc(NC(=O)c2ccon2)ccc1S(=O)(=O)Nc1cccc(C(F)(F)F)c1` [Example 1.268]: the concentration for half-maximal inhibition (IC50) lay in the range of 750 to 2000 nM.

As for `CCOc1cc(NC(=O)C2CCCC(=O)C2)ccc1S(=O)(=O)Nc1cccc(OC(F)(F)F)c1` (centres unmarked) [Example 1.269], the IC50 lay within 200 to 750 nM.

As for `CCOc1cc(NC(=O)[C@@H](CO)c2ccccc2)ccc1S(=O)(=O)Nc1cccc(C(C)(C)O)c1` [Example 1.270], the IC50 was 2000 to 20000 nM.

With `Cc1cc(NC(=O)C2CCCO2)ccc1S(=O)(=O)Nc1cccc(C(F)(F)F)c1` (centres unmarked) [Example 1.271], the concentration for half-maximal inhibition (IC50) is 2000 to 20000 nM.

As for `CCOc1cc(NC(=O)[C@@H](CO)c2ccccc2)ccc1S(=O)(=O)Nc1cccc(Cl)c1Cl` [Example 1.272], the IC50 was in the range of 750 to 2000 nM.

`COc1cc(NC(=O)C(C)C2CCCCC2)ccc1S(=O)(=O)Nc1cccc(C(F)(F)F)c1` (centres unmarked) [Example 1.273]: the IC50 lay within 750 to 2000 nM.

Take `CCOc1cc(NC(=O)[C@@H](CO)c2ccccc2)ccc1S(=O)(=O)Nc1cccc(OC(F)(F)F)c1C` [Example 1.274]: the IC50 lay within 2000 to 20000 nM.

Regarding `CCOc1cc(NC(=O)[C@@H](NC(C)=O)C(C)C)ccc1S(=O)(=O)Nc1ccc(C)c(OC(F)(F)F)c1` [Example 1.275], the IC50 was ≤ 200 nM.

With `CCOc1cc(NC(=O)[C@@H](O)c2ccccc2Cl)ccc1S(=O)(=O)Nc1cccc(OC(F)(F)F)c1` [Example 1.276], the IC50 is ≤ 200 nM.

`CCOc1cc(NC(=O)[C@@H](O)C(C)C)ccc1S(=O)(=O)Nc1cccc(C(C)(C)C)c1` [Example 1.277]: the IC50 is 200 to 750 nM.

`CCOc1cc(NC(=O)C(O)c2ccc(C(F)(F)F)cc2)ccc1S(=O)(=O)Nc1cccc(OC(F)(F)F)c1` (centres unmarked) [Example 1.278]: the half-inhibitory concentration (IC50) lay in the range of 200 to 750 nM.

As to `CCOc1cc(NC(=O)[C@@H](O)c2ccccc2)ccc1S(=O)(=O)Nc1ccc(C)c(OC(F)(F)F)c1` [Example 1.279], the IC50 was ≤ 200 nM.

In the case of `CCOc1cc(NC(=O)[C@@H]2C[C@@H](O)[C@@H](O)C2)ccc1S(=O)(=O)Nc1cccc(OC(F)(F)F)c1` [Example 1.280], the IC50 lay within 2000 to 20000 nM.

With `CCOc1cc(NC(=O)[C@H](O)C2CCCC2)ccc1S(=O)(=O)Nc1cccc(OC(F)(F)F)c1` [Example 1.281], the IC50 was ≤ 200 nM.

On to `CCOc1cc(NC(=O)C2COCCO2)ccc1S(=O)(=O)Nc1cccc(OC(F)(F)F)c1` (centres unmarked) [Example 1.282], for which the IC50 lay within 750 to 2000 nM.

As to `COc1cc(NC(=O)[C@@H](CO)C2CC2)ccc1S(=O)(=O)Nc1cccc(OC(F)(F)F)c1` [Example 1.283], the IC50 is ≤ 200 nM.

In the case of `Cc1cc(NC(=O)c2c(Br)cnn2C)ccc1S(=O)(=O)Nc1cccc(C(F)(F)F)c1` [Example 1.284], the IC50 lay within 2000 to 20000 nM.

Turning to `CCOc1cc(NC(=O)C2CCC(O)CC2)ccc1S(=O)(=O)Nc1cccc(OC(F)(F)F)c1` (centres unmarked) [Example 1.285], the IC50 fell in the range of 2000 to 20000 nM.

Consider `C=Cc1cc(NS(=O)(=O)c2ccc(NC(=O)[C@@H](O)C(C)C)cc2OCC)ccc1C` [Example 1.286], for which the IC50 is ≤ 200 nM.

As for `CCOc1cc(NC(=O)[C@H](CO)c2ccccc2)ccc1S(=O)(=O)Nc1cccc(OC(F)(F)F)c1` [Example 1.287], the IC50 lay in the range of 200 to 750 nM.

Turning to `CCOc1cc(NC(=O)[C@@H](CO)C(C)C)ccc1S(=O)(=O)Nc1ccc(F)c(OC(F)(F)F)c1` [Example 1.288], the IC50 was ≤ 200 nM.

With `Cn1nccc1C(=O)Nc1ccc(S(=O)(=O)Nc2cccc(OC(F)(F)F)c2)c(C#N)c1` [Example 1.289], the half-maximal inhibitory concentration (IC50) was in the range of 750 to 2000 nM.

Take `CCOc1cc(NC(=O)[C@@H](O)C(C)C)ccc1S(=O)(=O)Nc1cccc(OC)c1C` [Example 1.290]: the IC50 lay in the range of 750 to 2000 nM.

`CCOC(=O)[C@H]1CC(C)=C(C)C[C@@H]1C(=O)Nc1ccc(S(=O)(=O)Nc2cccc(OC(F)(F)F)c2)c(OCC)c1` [Example 1.291]: the IC50 was 200 to 750 nM.

With `Cc1cc(NC(=O)c2ccccc2Cl)ccc1S(=O)(=O)Nc1cccc(C(F)(F)F)c1` [Example 1.292], the IC50 lay within 200 to 750 nM.

For `Cc1ccccc1C(=O)Nc1ccc(S(=O)(=O)Nc2cccc(C(F)(F)F)c2)c(C)c1` [Example 1.293], the IC50 fell in the range of 200 to 750 nM.

Consider `COc1ccccc1C(=O)Nc1ccc(S(=O)(=O)Nc2cccc(C(F)(F)F)c2)c(OC)c1` [Example 1.294], for which the IC50 is 2000 to 20000 nM.

Regarding `CCOc1cc(NC(=O)[C@@H](CO)c2ccccc2)ccc1S(=O)(=O)Nc1ccc(C(F)(F)F)cc1` [Example 1.295], the IC50 was in the range of 750 to 2000 nM.

As to `CCN[C@H](C(=O)Nc1ccc(S(=O)(=O)Nc2ccc(C)c(OC(F)(F)F)c2)c(OCC)c1)C(C)C` [Example 1.296], the IC50 was ≤ 200 nM.

Turning to `CCOc1cc(NC(=O)[C@@H](CO)C(C)CC)ccc1S(=O)(=O)Nc1cccc(OC(F)(F)F)c1` (some centres unmarked) [Example 1.297], the IC50 is ≤ 200 nM.

Consider `CCOc1cc(NC(=O)[C@@H](NC=O)C(C)C)ccc1S(=O)(=O)Nc1cccc(OC(F)(F)F)c1` [Example 1.298], for which the IC50 is ≤ 200 nM.

For the compound `Cc1cc(NC(=O)c2cccc(Cl)c2)ccc1S(=O)(=O)Nc1cccc(C(F)(F)F)c1` [Example 1.299], the IC50 lay within 200 to 750 nM.

In the case of `CCOc1cc(NC(=O)C2CCCCN2)ccc1S(=O)(=O)Nc1cccc(OC(F)(F)F)c1` (centres unmarked) [Example 1.300], the IC50 was in the range of 200 to 750 nM.

As a reminder, the IC50 is the concentration at which inhibition is half-maximal.
